Measured values from patent US11083717B2, “Compositions and methods for drug sensitization of parasites” (The Texas A&M University System, priority 2015, dated 2021).
≈ marks a conversion by molar mass, not a printed value. Where two headings read alike, the source gives them in different places.

Assays:
[1] = system: Cryptosporidium parvum (CP); experiment: Cell culture model of Cryptosporidium parvum infection in HCT-8 cells, real-time qRT-PCR; type: cell-based; conditions: for inhibition at 0.056 µM: HCT-8, @0.056 uM
Experimental: Fresh oocysts of CP (Iowa strain) were purchased from Bunch Grass Farm (Deary, Id.). Oocysts were further purified by a Percoll-based gradient centrifugation method and surface sterilized with 10% bleach for 7 min on ice, followed by washes with phosphate-buffered saline (PBS). An ileocecal colorectal adenocarcinoma cell line (HCT-8, ATCC #CCL-244) was used to host the growth of CP in vitro. One day before the inoculation, HCT-8 cells were seeded in 96-well plates (2.5×10^4/well) containing RPMI 1640 medium supplied with 10% fetal bovine serum (200 μL medium/well in all experiments) and allowed to grow overnight at 37° C. under 5% CO2 atmosphere until they reached ˜90% confluence. For drug testing, host cells were infected with 1.5×10^4 oocysts per well (ratio ˜1:3). After inoculation, parasite oocysts were allowed to undergo excystation and invasion into host cells for 3 h at 37° C. Free parasites and oocyst walls in the medium were removed from the plates by an exchange of the culture medium. Drugs at specified concentrations were added into the culture at this time point (immediately after the medium exchange). Parasite-infected cells were then incubated at 37° C. for additional 41 h (total 44 h infection time). At least two independent experiments were conducted for every experimental condition, each including two replicates drugs and eight replicates for negative controls.
Plates containing HCT-8 cells infected with CP for 44 h were first centrifuged for 10 min at 1000×g to ensure that free merozoites in the medium were firmly settled on the bottom of the wells. Medium was removed, followed by two gentle washes with PBS. For extracting total RNA, 200 μL of ice-cold Bio-Rad iScript qRT-PCR sample preparation reagent (lysis buffer) (Bio-Rad Laboratories, Hercules, Calif.) was added into each well. Plates were sealed with heat sealing films and subjected to vortex for 20 min. Plates were then incubated at 75° C. for 15 min, followed by centrifugation (5 min, 2000×g) to settle down cell debris. Supernatants were used immediately in subsequent qRT-PCR reactions or the plates were stored at −80° C. until use.
The levels of 18S rRNA transcripts from CP and host cells (referred to as Cp18S and Hs18S) were detected by real-time qRT-PCR method using qScrip™ one-step SYBR green qRT-PCR kit (Quanta Biosciences, Gaithersburg, Md.). Cell lysates prepared as described above were diluted by 100 and 2000 folds for detecting Cp18S and Hs18S transcripts, respectively. Reactions were performed in hard-shell 384-well skirted PCR plates (Bio-Rad Laboratories, Hercules, Calif.) (10 μL/well) containing 3 μL diluted cell lysate, 5 μL one-step SYBR green master mix, 0.2 μl RT master mix and the following primers: Cp18S-1011F and Cp18S-1185R primer pair for Cp18S rRNA, and Hs18S-1F and Hs18S-1R primer pair for Hs18S rRNA. Hs18S levels were used as controls and for normalization.
Real-time qRT-PCR reactions were performed by a Bio-Rad CFX384 Touch Real-Time PCR Detection System. The reactions started with synthesizing cDNA at 50° C. for 20 min, followed by 5 min at 95° C. to denature RNA-cDNA hybrids and deactivate reverse transcriptase, and 40 two-temperature thermal cycles of PCR amplification at 95° C., 10 sec and 58° C., 30 sec. At the end of PCR amplification, melting curve analysis was performed between 65° C. to 95° C. At least 2 technical replicates were included in qRT-PCR reactions for each sample.
The % inhibition (% inh @ (μM)) was calculated using a standard curve.

S. cerevisiae = experiment: in vitro; conditions: Saccharomyces cerevisiae
human fibroblast = experiment: in vitro
[2] = Cryptosporidium parvum, 44 h, CP in HCT-8 cells, 44 h infection, 50% reduction of parasite growth vs control, NA: not active, read-out: MIC50
[3] = Cryptosporidium parvum, HCT-8, read-out: % inh @ (μM)

MIC50 [1, 2]	SMILES	concentrations at which not toxic, S. cerevisiae cytotoxicity testing (S. cerevisiae)	also measured
–	CC(C)NC(=O)Nc1ccc(Oc2nc3ccc(F)cc3s2)cc1 [NZ-332, 1-{4-[(6-fluoro-1,3-benzothiazol-2-yl)oxy]phenyl}-3-(propan-2-yl)urea]	≥ 100 µM	MIC50 ([1]; Cryptosporidium parvum, 44 h): ~2.5 µM (≈ 0.863 µg/mL); concentrations at which not toxic, human fibroblast cytotoxicity testing (human fibroblast): ≥ 100 µM
–	CONC(=O)COc1ccc(Oc2cnc3cc(Cl)ccc3n2)cc1 [NZ-274, 2-{4-[(6-chloroquinoxalin-2-yl)oxy]phenoxy}-N-methoxyacetamide]	≥ 100 µM	inhibition at 10 µM [1, 3]: 1.5%; concentrations at which not toxic, human fibroblast cytotoxicity testing (human fibroblast): ≥ 100 µM
–	CNC(=O)Cc1ccc(Oc2nc3cc(F)c(F)cc3s2)cc1O [NZ-401, 2-{4-[(5,6-difluoro-1,3-benzothiazol-2-yl)oxy]-2-hydroxyphenyl}-N-methylacetamide]	≥ 100 µM	inhibition at 4 µM [1, 3]: 3%; concentrations at which not toxic, human fibroblast cytotoxicity testing (human fibroblast): ≥ 100 µM
–	CNC(=O)Cc1ccc(Oc2nc3cc(F)c(F)cc3s2)cc1 [NZ-400, 2-{4-[(5,6-difluoro-1,3-benzothiazol-2-yl)oxy]phenyl}-N-methylacetamide]	≥ 100 µM	MIC50 ([1]; Cryptosporidium parvum, 44 h): ~10 µM (≈ 3.34 µg/mL); inhibition at 10 µM [1, 3]: 67%; concentrations at which not toxic, human fibroblast cytotoxicity testing (human fibroblast): ≥ 100 µM
~1 µM (≈ 0.389 µg/mL)	O=C(Cc1ccc(Oc2nc3ccc(Cl)cc3s2)cc1)N1CCOCC1 [NZ-575, 2-{4-[(6-chloro-1,3-benzothiazol-2-yl)oxy]phenyl}-1-(morpholin-4-yl)ethan-1-one]	–	–
0.25 µM (≈ 0.0897 µg/mL)	CNC(=O)C1(c2ccc(Oc3nc4ccc(Cl)cc4s3)cc2)CC1 [NZ-521, 1-{4-[(6-chloro-1,3-benzothiazol-2-yl)oxy]phenyl}-N-methylcyclopropane-1-carboxamide]	–	–
~0.03 µM (≈ 0.0131 µg/mL)	O=C(Cc1ccc(Oc2nc3ccc(Cl)cc3s2)cc1)N1CCS(=O)(=O)CC1 [NZ-576, 4-(2-{4-[(6-chloro-1,3-benzothiazol-2-yl)oxy]phenyl}acetyl)-1λ^6,4-thiomorpholine-1,1-dione]	–	–
~0.45 µM (≈ 0.187 µg/mL)	CC(C(=O)NC1CNC(=O)C1)c1ccc(Oc2nc3ccc(Cl)cc3s2)cc1 (stereo not shown) [NZ-562, 2-{4-[(6-chloro-1,3-benzothiazol-2-yl)oxy]phenyl}-N-(5-oxopyrrolidin-3-yl)propanamide]	–	–
0.054 µM (≈ 0.0216 µg/mL)	O=C(NC1COC1)C1(c2ccc(Oc3nc4ccc(Cl)cc4s3)cc2)CC1 [NZ-564, 1-{4-[(6-chloro-1,3-benzothiazol-2-yl)oxy]phenyl}-N-(oxetan-3-yl)cyclopropane-1-carboxamide]	–	–
< 0.056 µM	CC(C(=O)N1CCOCC1CO)c1ccc(Oc2nc3ccc(Cl)cc3s2)cc1 (stereo not shown) [NZ-555, 2-{4-[(6-chloro-1,3-benzothiazol-2-yl)oxy]phenyl}-1-[3-(hydroxymethyl)morpholin-4-yl]propan-1-one]	–	inhibition at 0.056 µM ([1]; Cryptosporidium parvum): 79%
~0.5 µM (≈ 0.219 µg/mL)	O=C(Nc1ccc(Oc2nc3ccc(Cl)cc3s2)cc1)N1CCS(=O)(=O)CC1 [NZ-573, N-{4-[(6-chloro-1,3-benzothiazol-2-yl)oxy]phenyl}-1,1-dioxo-1λ^6,4-thiomorpholine-4-carboxamide]	–	–
< 0.056 µM	CC(C(=O)N(C)CCN(C)C)c1ccc(Oc2nc3ccc(Cl)cc3s2)cc1 (stereo not shown) [NZ-547, 2-{4-[(6-chloro-1,3-benzothiazol-2-yl)oxy]phenyl}-N-[2-(dimethylamino)ethyl]-N-methylpropanamide]	–	inhibition at 0.056 µM ([1]; Cryptosporidium parvum): 96%
> 0.45 µM	CC(C(=O)N1CCOCC1)c1ccc(Oc2cnc3cc(Cl)ccc3n2)cc1 (stereo not shown) [NZ-529, 2-{4-[(6-chloroquinoxalin-2-yl)oxy]phenyl}-1-(morpholin-4-yl)propan-1-one]	–	–
0.112 to 0.225 µM (≈ 0.052 to 0.104 µg/mL)	CC(C(=O)NCCN(CCO)CCO)c1ccc(Oc2nc3ccc(Cl)cc3s2)cc1 (stereo not shown) [NZ-557, N-{2-[bis(2-hydroxyethyl)amino]ethyl}-2-{4-[(6-chloro-1,3-benzothiazol-2-yl)oxy]phenyl}propanamide]	–	–
–	CNC(=O)C(C)c1ccc(Oc2nc3ccc(Cl)cc3s2)cc1 (single isomer, unassigned) [NZ-369 (peak 2), 2-{4-[(6-chloro-1,3-benzothiazol-2-yl)oxy]phenyl}-N-methylpropanamide]	–	MIC50 ([1]; CP in HCT-8 cells, 44 h infection, 50% reduction of parasite growth vs control, NA: not active): ~0.02 µM (≈ 0.00694 µg/mL)
0.112 to 0.225 µM (≈ 0.0437 to 0.0877 µg/mL)	CNCCNC(=O)C(C)c1ccc(Oc2nc3ccc(Cl)cc3s2)cc1 (stereo not shown) [NZ-548, 2-{4-[(6-chloro-1,3-benzothiazol-2-yl)oxy]phenyl}-N-[2-(methylamino)ethyl]propanamide]	–	inhibition at 0.112 µM ([1]; Cryptosporidium parvum, HCT-8, @0.112 uM): 45%
~0.5 µM (≈ 0.195 µg/mL)	O=C(Nc1ccc(Oc2nc3ccc(Cl)cc3s2)cc1)N1CCOCC1 [NZ-572, N-{4-[(6-chloro-1,3-benzothiazol-2-yl)oxy]phenyl}morpholine-4-carboxamide]	–	–
> 10 µM	CS(=O)(=O)NC(=O)COc1ccc(Oc2cnc3cc(Cl)ccc3n2)cc1 [NZ-259, 2-{4-[(6-chloroquinoxalin-2-yl)oxy]phenoxy}-N-methanesulfonylacetamide]	–	inhibition at 10 µM ([1]; Cryptosporidium parvum, HCT-8, @10 uM, read-out: % inh @): 33%

SMILES	MIC50 [1, 2]	concentrations at which not toxic, S. cerevisiae cytotoxicity testing (S. cerevisiae)	also measured
CNC(=O)Cc1c(F)cc(Oc2nc3ccc(F)cc3s2)cc1F [NZ-433, 2-{2,6-difluoro-4-[(6-fluoro-1,3-benzothiazol-2-yl)oxy]phenyl}-N-methylacetamide]	~2 µM (≈ 0.705 µg/mL)	≥ 100 µM	concentrations at which not toxic, human fibroblast cytotoxicity testing (human fibroblast; human): ≥ 100 µM
CNC(=O)Cc1ccc(Oc2nc3ccc(F)cc3s2)cc1O [NZ-395, 2-{4-[(6-fluoro-1,3-benzothiazol-2-yl)oxy]-2-hydroxyphenyl}-N-methylacetamide]	~5 µM (≈ 1.66 µg/mL)	≥ 100 µM	concentrations at which not toxic, human fibroblast cytotoxicity testing (human fibroblast; human): ≥ 100 µM
O=C(Cc1ccc(Oc2nc3ccc(F)cc3s2)cc1)N1CCCCC1 [NZ-471, 2-{4-[(6-fluoro-1,3-benzothiazol-2-yl)oxy]phenyl}-1-(piperidin-1-yl)ethan-1-one]	1 to 4 µM (≈ 0.37 to 1.48 µg/mL)	≥ 100 µM	inhibition at 4 µM ([1]; Cryptosporidium parvum, HCT-8, @4 uM, read-out: % inh @): 89%; concentrations at which not toxic, human fibroblast cytotoxicity testing (human fibroblast; human): ≥ 100 µM
NC(=O)Cc1ccc(Oc2nc3cc(F)c(F)cc3s2)cc1F [NZ-496, 2-{4-[(5,6-difluoro-1,3-benzothiazol-2-yl)oxy]-2-fluorophenyl}acetamide]	0.25 to 1 µM (≈ 0.0846 to 0.338 µg/mL)	≥ 100 µM	concentrations at which not toxic, human fibroblast cytotoxicity testing (human fibroblast; human): ≥ 100 µM
CC(C(=O)N(C)C)c1ccc(Oc2nc3ccc(Cl)cc3s2)cc1 (stereo not shown) [NZ-368, 2-{4-[(6-chloro-1,3-benzothiazol-2-yl)oxy]phenyl}-N,N-dimethylpropanamide]	< 0.125 µM	25 to 50 µM	concentrations at which not toxic, human fibroblast cytotoxicity testing (human fibroblast; human): ≥ 100 µM
CNC(=O)Cc1c(F)cc(Oc2nc3ccc(Cl)cc3s2)cc1F [NZ-459, 2-{4-[(6-chloro-1,3-benzothiazol-2-yl)oxy]-2,6-difluorophenyl}-N-methylacetamide]	1 µM (≈ 0.369 µg/mL)	≥ 100 µM	concentrations at which not toxic, human fibroblast cytotoxicity testing (human fibroblast; human): ≥ 100 µM
CC(C(=O)N1CCN(C)CC1)c1ccc(Oc2nc3ccc(Cl)cc3s2)cc1 (single isomer, unassigned) [NZ-366 (peak 1), 2-{4-[(6-chloro-1,3-benzothiazol-2-yl)oxy]phenyl}-1-(4-methylpiperazin-1-yl)propan-1-one]	< 0.05 µM	–	inhibition at 0.05 µM ([1]; Cryptosporidium parvum, HCT-8, @0.05 uM, read-out: % inh @): 85%
